“Also recorded” adds a separate entry of the source. Structures can show the parent of a compound that is named as a salt.
Tests used:
[1] = Pharmacokinetics of the subject combination in moderate renal impairment
Excerpt: (§1) Data are GMRs and 90% CIs. References used are the matched healthy subjects for renal and hepatic impairment studies, and extensive or ultra-extensive CYP2D6 metabolizers respectively.

[2] = Steady state pharmacokinetics after administration of the subject combination; details: for Cmax relative to the peak level of bupropion: after administration of the subject combination
[3] = Co-administration of the subject combination with paroxetine / strong CYP2D6 inhibitor; details: subject combination plus strong CYP2D6 inhibitor
Excerpt: In some embodiments, the patients are monitored for adverse reactions potentially attributable to dextromethorphan, such as somnolence and dizziness.

[4] = Pharmacokinetics of the subject combination in CYP2D6 poor metabolizers; details: steady state, hydrobromide monohydrate
Excerpt: Approximately 7% to 10% of Caucasians and 3% to 8% of African Americans lack the capacity to metabolize CYP2D6 substrates and are classified as poor metabolizers.
as §1

[5] = Effect of food on pharmacokinetics of the subject combination; format: in vivo, human; details: subject combination administered with food
[6] = clinical trials; cited from earlier work
[7] = clinical trials; cited from earlier work; remark: listed apart in the source

CC(NC(C)(C)C)C(=O)c1cccc(Cl)c1.Cl (racemic) [bupropion, (±)-1-(3-chlorophenyl)-2-[(1,1-dimethylethyl)amino]-1-propanone hydrochloride]
increase in exposure vs matched controls with normal renal function ([1]; human, in vivo): approximately 2 fold
reduction in clearance vs matched controls with normal renal function ([1]; human, in vivo): 50%

COc1ccc2c(c1)[C@]13CCCC[C@@H]1[C@H](C2)N(C)CC3 [dextromethorphan, morphinan, 3-methoxy-17-methyl-, (9α, 13α, 14α), hydrobromide monohydrate]
reduction in clearance vs matched controls with normal renal function ([1]; moderate renal impairment (GFR 30-60 mL/min)): 50%
increase in exposure vs matched controls with normal renal function ([1]; moderate renal impairment (GFR 30-60 mL/min), 7 subjects vs 6 controls): approximately 2 fold
increase in mean elimination half-life compared to dextromethorphan given without bupropion ([2]; 8 days of the subject combination, extensive metabolizers): approximately 3 fold
pharmacokinetics at steady state (dose proportionality) ([2]; co-administered with bupropion, dextromethorphan 30 to 60 mg, bupropion 75 to 150 mg): nonlinear pharmacokinetics
plasma concentrations on concomitant use with a strong CYP2D6 inhibitor [3]: increases plasma concentrations
plasma concentrations in poor metabolizers compared with non-poor metabolizers [4]: increases plasma concentrations; also recorded: generally higher
change of Cmax with food [5]: unchanged

CC(NC(C)(C)C)C(O)c1cccc(Cl)c1 (stereo not drawn) [erythrohydroxybupropion]
Cmax relative to the peak level of bupropion [2]: approximately equal to

CN[C@]1(c2ccccc2Cl)CCCCC1=O [esketamine, Esketamine]
patients who developed dissociative or perceptual changes based on CADSS [6]: 61% to 84
patients who developed sedation based on MOAA/S [7]: 48% to 61
patients who experienced loss of consciousness (MOAA/S score of 0) [7]: 0.3% to 0.4

C[C@H]1NC(C)(C)CO[C@]1(O)c1cccc(Cl)c1 [hydroxybupropion]
Cmax relative to the peak level of bupropion [2]: approximately 14 times

C[C@H](NC(C)(C)C)[C@@H](O)c1cccc(Cl)c1 [threohydroxybupropion]
Cmax relative to the peak level of bupropion [2]: about 5 times
